{
  "source": "patent US8048919B2",
  "about": "“Use of ethyl lactate as an excipient for pharmaceutical compositions” (Archer Daniels Midland Company, priority 2004, dated 2011)",
  "assay": "Resistance of high purity ethyl lactate to peroxide formation in air (Quantofix test paper)",
  "format": "physicochemical",
  "details": "for level of peroxide: 250 ml ethyl lactate + 0.3 g agent, stirred in air",
  "experimental": "In the procedure used, 250 ml of high purity ethyl lactate containing 0.0 ppm of peroxide as measured with Quantofix™ test paper was added to each of four beakers. The first beaker served as a control and was not treated with any chemical agent. The second beaker was treated with 0.3 g of BHT. The third beaker was treated with 0.3 g of cysteine and the fourth beaker was treated with 0.3 g of methionine. […] The level of peroxide in each of the ethyl lactate samples was monitored and is reported as a function of time in Table 2.",
  "data": [
    {"smiles": "N[C@@H](CS)C(=O)O", "note": "[Cysteine, cysteine]", "values": [
      {"measurement": "level of peroxide", "setting": "time 0 minutes", "value": 0.0, "unit": "ppm"},
      {"measurement": "level of peroxide", "setting": "time 15 minutes", "value": 0.0, "unit": "ppm"},
      {"measurement": "level of peroxide", "setting": "time 30 minutes", "value": 0.0, "unit": "ppm"},
      {"measurement": "level of peroxide", "setting": "time 60 minutes", "value": 0.0, "unit": "ppm"},
      {"measurement": "level of peroxide", "setting": "time 75 minutes", "value": 0.0, "unit": "ppm"},
      {"measurement": "level of peroxide", "setting": "time 90 minutes", "value": 0.0, "unit": "ppm"},
      {"measurement": "level of peroxide", "setting": "time 105 minutes", "value": 0.0, "unit": "ppm"},
      {"measurement": "level of peroxide", "setting": "time 120 minutes", "value": 0.0, "unit": "ppm"},
      {"measurement": "level of peroxide", "setting": "time 150 minutes", "value": 0.0, "unit": "ppm"},
      {"measurement": "level of peroxide", "setting": "time 180 minutes", "value": 0.0, "unit": "ppm"},
      {"measurement": "level of peroxide", "setting": "time 240 minutes", "value": 0.0, "unit": "ppm"},
      {"measurement": "level of peroxide", "setting": "time 300 minutes", "value": 0.0, "unit": "ppm"},
      {"measurement": "level of peroxide", "setting": "time 360 minutes", "value": 0.0, "unit": "ppm"},
      {"measurement": "level of peroxide", "setting": "time 1440 minutes", "value": "0.0-0.5 ppm"}
    ]},
    {"smiles": "Cc1cc(C(C)(C)C)c(O)c(C(C)(C)C)c1", "note": "[BHT, butylated hydroxyl toluene]", "values": [
      {"measurement": "level of peroxide", "setting": "time 0 minutes", "value": 0.0, "unit": "ppm"},
      {"measurement": "level of peroxide", "setting": "time 15 minutes", "value": 0.0, "unit": "ppm"},
      {"measurement": "level of peroxide", "setting": "time 30 minutes", "value": 0.0, "unit": "ppm"},
      {"measurement": "level of peroxide", "setting": "time 60 minutes", "value": 0.0, "unit": "ppm"},
      {"measurement": "level of peroxide", "setting": "time 75 minutes", "value": 0.0, "unit": "ppm"},
      {"measurement": "level of peroxide", "setting": "time 90 minutes", "value": 0.0, "unit": "ppm"},
      {"measurement": "level of peroxide", "setting": "time 105 minutes", "value": 0.0, "unit": "ppm"},
      {"measurement": "level of peroxide", "setting": "time 120 minutes", "value": 0.0, "unit": "ppm"},
      {"measurement": "level of peroxide", "setting": "time 150 minutes", "value": 0.0, "unit": "ppm"},
      {"measurement": "level of peroxide", "setting": "time 180 minutes", "value": 0.0, "unit": "ppm"},
      {"measurement": "level of peroxide", "setting": "time 240 minutes", "value": 0.0, "unit": "ppm"},
      {"measurement": "level of peroxide", "setting": "time 300 minutes", "value": 0.0, "unit": "ppm"},
      {"measurement": "level of peroxide", "setting": "time 360 minutes", "value": 0.0, "unit": "ppm"},
      {"measurement": "level of peroxide", "setting": "time 1440 minutes", "value": 0.0, "unit": "ppm"},
      {"measurement": "effectiveness as stabilizer against peroxide generation", "setting": "compared with the other compounds evaluated", "value": "most effective"},
      {"measurement": "Gardner color rating", "setting": "ethyl lactate stabilized with BHT, throughout the trial period", "value": 1}
    ]},
    {"smiles": "CSCC[C@H](N)C(=O)O", "note": "[Methionine, methionine]", "values": [
      {"measurement": "level of peroxide", "setting": "time 0 minutes", "value": 0.0, "unit": "ppm"},
      {"measurement": "level of peroxide", "setting": "time 15 minutes", "value": 0.0, "unit": "ppm"},
      {"measurement": "level of peroxide", "setting": "time 30 minutes", "value": 0.0, "unit": "ppm"},
      {"measurement": "level of peroxide", "setting": "time 60 minutes", "value": 0.5, "unit": "ppm"},
      {"measurement": "level of peroxide", "setting": "time 75 minutes", "value": "0.5-2.0 ppm"},
      {"measurement": "level of peroxide", "setting": "time 90 minutes", "value": "0.5-2.0 ppm"},
      {"measurement": "level of peroxide", "setting": "time 105 minutes", "value": 2.0, "unit": "ppm"},
      {"measurement": "level of peroxide", "setting": "time 120 minutes", "value": 2.0, "unit": "ppm"},
      {"measurement": "level of peroxide", "setting": "time 150 minutes", "value": 2.0, "unit": "ppm"},
      {"measurement": "level of peroxide", "setting": "time 180 minutes", "value": 5.0, "unit": "ppm"},
      {"measurement": "level of peroxide", "setting": "time 240 minutes", "value": "2.0-5.0 ppm"},
      {"measurement": "level of peroxide", "setting": "time 300 minutes", "value": 5.0, "unit": "ppm"},
      {"measurement": "level of peroxide", "setting": "time 360 minutes", "value": 5.0, "unit": "ppm"},
      {"measurement": "level of peroxide", "setting": "time 1440 minutes", "value": 5.0, "unit": "ppm"}
    ]}
  ]
}
